Measurements published in patent EP0043274A2, “Antithrombotic treatment” (priority 1980, dated 1982).
“And” between values parts separate entries of the source, which are not always exact repeats. Equal values may be shown once. Where a name gives a salt, the structure may show the parent alone. Read-outs that look alike come from different tables or passages of the source.

Columns and labels:
[1] = tested on: thrombus formation in the jugular vein; assay: I 125 fibrinogen technique, damaged jugular vein (venous thrombosis), continuous infusion; format: in vivo, rabbits; details: for thrombus formation in the jugular vein (conclusion in words): continuous infusion for five hours
Method: The anti venous thrombotic effect of sodium bisulfite is evaluated in rabbits by using I ^125 fibrinogen technique as described in an article in "Archives of Surgery" Vol. 104, pg. 152 (1972).
The rabbit was continuously infused with aqueous sodium bisulfite solution at the rate of […]. (5.154 gram per hour) (animal body weight 2.3 kg) for a time of five hours. After 5 hours, the animal was sacrificed and the radioactive fibrinogen accumulated in the damaged jugular vein was determined. The radioactivity on the contra-lateral (undamaged) jugular vein was also determined to serve as a control. Concurrently, another rabbit had experienced the same procedure but received only a standard sodium chloride solution as a control. The rabbit from the normal saline solution has seven times as much radioactivity as his counterpart infused with sodium bisulfite.
Two jugular veins on a normal, healthy rabbit are exposed and one of the veins is systematically damaged by clamping in two longitudinally spaced places. The rabbit is then continuously infused with aqueous sodium formaldehyde bisulfite at the rate of […] (5.154 gram per hour) (animal body weight 2.3 kg). The rabbit is then injected with fibrinogen labeled with I^125. After 5 hours, the damaged jugular vein is evaluated for radioacive count with a Geiger counter.
This iodine 125 evaluation technique is described by Kakkar in Archieves of Surgery, Vol. 104, pg. 152 (1972) and by Kelton, J.G. et al, Journal of Clinical Investigation, Vol. 62, pgs. 892-895, (1978). […] Other rabbits, similarly evaluated, died, apparently because of overdose by the infustion technique.

human plasma [2] = format: biochemical; details: for PT (effect in words): in vitro, 0.5 mg/ml
human plasma [3] = format: biochemical; details: for PTT (effect in words): in vitro; for PTT(seconds) Exp. 2 A: Active Agent 0.5/ml, test sequences A and B, control 50.5 (A), 44.5 (B)
rabbit plasma = assay: Blood coagulation tests (PT, PTT, coagulation factors) in vitro; format: biochemical; details: rabbit plasma in vitro, 0.5 mg/ml
Description: (§1) The alkali metalbisulfites, sodium and potassium, and ammonium bisulfite are found to prolong PT and PTT in a dose-related fashion.
The Solution I is found to prolong PT and PTT in a dose related fashion. […] The agent is active in inhibiting various coagulation factors, including factors VII, IX, X, XI, and XII.

rat plasma = assay: as above; format: biochemical; details: rat plasma in vitro, 0.5 mg/ml
Description: as §1

FIBRINOGEN = molecular target: T1, FIBRINOGEN (Homo sapiens, UniProt P02671+P02675+P02679); assay: Coagulation factor assay (Biggs): fibrinogen; format: biochemical; details: mean of two experiments; control 205
T1 construct: from tissue; host or cells: human plasma
T1 sequence (P02671 20-629 limits assumed): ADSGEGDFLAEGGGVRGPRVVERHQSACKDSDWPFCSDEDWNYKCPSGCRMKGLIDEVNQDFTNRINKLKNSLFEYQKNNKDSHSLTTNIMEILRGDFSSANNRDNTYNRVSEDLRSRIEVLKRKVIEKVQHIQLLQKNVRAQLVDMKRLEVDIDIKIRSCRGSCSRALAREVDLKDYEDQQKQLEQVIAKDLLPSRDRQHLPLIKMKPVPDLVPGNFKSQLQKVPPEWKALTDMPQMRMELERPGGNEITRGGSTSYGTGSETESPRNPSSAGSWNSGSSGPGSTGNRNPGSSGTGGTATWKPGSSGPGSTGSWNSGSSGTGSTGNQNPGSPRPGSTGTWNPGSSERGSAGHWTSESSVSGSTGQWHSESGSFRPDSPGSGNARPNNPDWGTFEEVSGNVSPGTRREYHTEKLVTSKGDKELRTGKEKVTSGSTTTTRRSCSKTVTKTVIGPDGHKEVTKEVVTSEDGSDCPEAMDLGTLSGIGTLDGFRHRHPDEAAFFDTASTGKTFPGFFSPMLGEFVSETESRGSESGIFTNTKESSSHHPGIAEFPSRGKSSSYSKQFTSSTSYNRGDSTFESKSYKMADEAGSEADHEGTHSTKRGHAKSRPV
T1 sequence (P02675 31-491): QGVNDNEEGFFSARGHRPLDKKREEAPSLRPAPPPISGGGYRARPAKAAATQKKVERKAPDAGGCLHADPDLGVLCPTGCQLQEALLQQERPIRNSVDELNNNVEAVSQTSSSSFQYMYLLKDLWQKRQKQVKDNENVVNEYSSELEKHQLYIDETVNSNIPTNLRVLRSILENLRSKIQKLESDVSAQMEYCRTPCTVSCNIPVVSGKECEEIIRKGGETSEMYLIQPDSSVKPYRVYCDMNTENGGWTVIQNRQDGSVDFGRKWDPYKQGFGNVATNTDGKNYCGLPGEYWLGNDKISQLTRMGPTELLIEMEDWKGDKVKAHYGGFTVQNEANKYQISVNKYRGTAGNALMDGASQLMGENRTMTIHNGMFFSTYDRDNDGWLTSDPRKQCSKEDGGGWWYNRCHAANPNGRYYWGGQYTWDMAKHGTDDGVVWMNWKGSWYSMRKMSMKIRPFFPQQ
T1 sequence (P02679 27-453): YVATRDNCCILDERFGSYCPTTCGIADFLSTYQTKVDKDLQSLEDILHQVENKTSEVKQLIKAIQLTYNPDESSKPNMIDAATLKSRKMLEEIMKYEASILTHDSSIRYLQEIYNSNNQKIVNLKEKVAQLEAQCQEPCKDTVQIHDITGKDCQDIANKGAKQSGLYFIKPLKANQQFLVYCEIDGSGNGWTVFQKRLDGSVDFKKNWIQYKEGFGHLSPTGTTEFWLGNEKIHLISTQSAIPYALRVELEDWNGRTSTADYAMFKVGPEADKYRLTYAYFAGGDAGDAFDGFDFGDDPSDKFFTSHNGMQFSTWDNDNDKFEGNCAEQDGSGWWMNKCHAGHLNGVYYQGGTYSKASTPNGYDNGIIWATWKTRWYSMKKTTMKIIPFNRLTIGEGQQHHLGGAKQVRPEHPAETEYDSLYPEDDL
Method: The effect of U.S.P. grade sodium bisulfite on blood coagulation factors is evaluated by standard procedures (Biggs) and the results are shown in Table III below.
References for PT, PTT, and assays of all the coagulation factors can be found in a standard textbook, entitled "Human Blood Coagulation, Haemostasis and Thrombosis", edited by Rosemary Biggs, published by Blackwell Scientific Publications, Oxford, England (2nd edition), pages 670-705, 1976.

[4] = coded agents 0.5mg/ml, […], control 12.92
[5] = 0.5 mg/ml, two different days, control 42.6 / 42.10
[6] = coded agents 0.5mg/ml, […], control 43.38
[7] = amine bisulfites, control plasma 12.8 / 13.1
[8] = amine bisulfites, control plasma 13.1 / 13.0
[9] = amine bisulfites, control plasma 37.5 / 38.2
[10] = amine bisulfites, control plasma 37.8 / 39.2

CCCC[N+](CCCC)(CCCC)CCCC [tetrabutyl ammonium bisulfite]
radioactivity (I 125 fibrinogen) in damaged jugular vein of saline control rabbit relative to treated rabbit ([1]; continuous infusion .001 mg/kg min (5.154 gram per hour) for five hours): approximately 7 times

CCCCCCCCN.O=S(O)O [n-octyl amine bisulfite]
thrombus formation in the jugular vein (conclusion in words) [1]: definite positive antithrombotic effect

potassium bisulfite
PT (effect in words) (human plasma [2]): significantly prolong
PTT (effect in words) (human plasma [3]; 0.5 mg/ml): significantly prolong
PT and PTT (effect in words) (rabbit plasma): significantly prolong
PT and PTT (effect in words) (rat plasma): significantly prolong

CCN(CC)CC.O=S(O)O [TRIETHYL AMINE SULFITE, triethyl amine sulfite]
MEAN LSD (PT) (human plasma [2]): 16.9 ± 1.1 s
PT(Sec) […]. 1 (human plasma [2]): 17.0 s
PT(Sec) […]. 2 (human plasma [2]): 18.5 s
PT(Sec) […]. 3 (human plasma [2]): 15.4 s
PT(Sec) […]. 4 (human plasma [2]): 16.6 s
PT(Sec) […].5 (human plasma [2]): 16.8 s
thrombus formation in the jugular vein (conclusion in words) [1]: definite positive antithrombotic effect
MEAN LSD (PTT) (human plasma [3]): 60.6 ± 4.1 s
PTT(Sec) […]. 1 (human plasma [3]): 59.2 s
PTT(Sec) […]. 2 (human plasma [3]): 65.1 s
PTT(Sec) […]. 3 (human plasma [3]): 54.9 s
PTT(Sec) […]. 4 (human plasma [3]): 59.0 s
PTT(Sec) […].5 (human plasma [3]): 64.0 s
Fibrinogen (%) (FIBRINOGEN): 170%

ammonium bisulfite
PT (effect in words) (human plasma [2]): significantly prolong
PTT (effect in words) (human plasma [3]; 0.5 mg/ml): significantly prolong
PT and PTT (effect in words) (rabbit plasma): significantly prolong
PT and PTT (effect in words) (rat plasma): significantly prolong

O=S([O-])S(=O)(=O)[O-].[K+].[K+] [Potassium Metabisulfite]
PT (human plasma [2]): 18.76 s
PT(seconds) Exp. 1 A (human plasma [2]): 18.3 s and 20.4 s
PT(seconds) Exp. 2 A (human plasma [2]): 22.0 s
PT (human plasma [2]; [4]): 19.34 s
PTT(seconds) Exp. 1 A (human plasma [3]): 77.6 s and 91.6 s
PTT (human plasma [3]; [5]): 80.60 s
PTT(seconds) Exp. 2 A (human plasma [3]): 111.3 s and 105.2 s
PTT (human plasma [3]; [6]): 83.84 s

Nc1ccccc1 [ANILINE]
PT REPLICATIONS 1 (human plasma [2]; [7]): 16.0
PT REPLICATIONS 2 (human plasma [2]; [7]): 16.9
PT REPLICATIONS 3 (human plasma [2]; [8]): 16.0
PTT REPLICATIONS 2 (human plasma [3]): 44.9
PTT REPLICATIONS 1 (human plasma [3]; [9]): 45.4
PTT REPLICATIONS 3 (human plasma [3]; [10]): 42.9

CC(C)(C)N [TERT-BUTYL AMINE]
PT REPLICATIONS 1 (human plasma [2]; [7]): 21.7
PT REPLICATIONS 2 (human plasma [2]; [7]): 21.8
PT REPLICATIONS 3 (human plasma [2]; [8]): 21.8
PTT REPLICATIONS 2 (human plasma [3]): 68.9
PTT REPLICATIONS 1 (human plasma [3]; [9]): 68.2
PTT REPLICATIONS 3 (human plasma [3]; [10]): 69.0

OCCNCCO [DIETHANOL AMINE]
PT REPLICATIONS 1 (human plasma [2]; [7]): 20.6
PT REPLICATIONS 2 (human plasma [2]; [7]): 19.8
PT REPLICATIONS 3 (human plasma [2]; [8]): 19.7
thrombus formation in the jugular vein (conclusion in words) [1]: definite positive antithrombotic effect
PTT REPLICATIONS 2 (human plasma [3]): 58.0
PTT REPLICATIONS 1 (human plasma [3]; [9]): 62.6
PTT REPLICATIONS 3 (human plasma [3]; [10]): 60.6

O=C(O)CC(S)C(=O)O (stereo not drawn) [Example A2, Mercaptosuccinic acid, reference compound]
PT (human plasma [2]): 14.7 s
PT (human plasma [2]; [4]): 14.60 s
PTT (human plasma [3]; [5]): 52.6 s
PTT (human plasma [3]; [6]): 48.70 s

C1COCCN1 [MORPHOLINE]
PT REPLICATIONS 1 (human plasma [2]): 19.3
PT REPLICATIONS 2 (human plasma [2]): 21.0
PT REPLICATIONS 3 (human plasma [2]): 17.5
PTT REPLICATIONS 1 (human plasma [3]): 66.8
PTT REPLICATIONS 2 (human plasma [3]): 61.8
PTT REPLICATIONS 3 (human plasma [3]): 51.7

O=C(O)/C(O)=C(/O)C(=O)O [Example A3, Dihydroxymaleic acid 2 H2O, reference compound]
PT (human plasma [2]; [4]): 14.95 s
PTT (human plasma [3]; [6]): 53.00 s

CCCCN(CCCC)CCCC.O=S(O)O [tri-n-butyl amine bisulfite]
thrombus formation in the jugular vein (conclusion in words) [1]: definite positive antithrombotic effect

C=CCN [ALLYL AMINE HYDROCHLORIDE, reference compound]
PT 3 (human plasma [2]): 14.4
PT 2 (human plasma [2]; amine hydrochlorides, control plasma 12.5): 13.2
PT 1 (human plasma [2]; amine hydrochlorides, control plasma 13.0): 13.2
PTT 1 (human plasma [3]): 31.6
PTT 3 (human plasma [3]; amine hydrochlorides, control plasma 31.2): 32.4
PTT 2 (human plasma [3]; amine hydrochlorides, control plasma 31.3): 30.5

C=CCN [ALLYL AMINE]
PT REPLICATIONS 1 (human plasma [2]; [7]): 16.1
PT REPLICATIONS 2 (human plasma [2]; [7]): 16.0
PT REPLICATIONS 3 (human plasma [2]; [8]): 15.6
PTT REPLICATIONS 2 (human plasma [3]): 46.9
PTT REPLICATIONS 1 (human plasma [3]; [9]): 47.1
PTT REPLICATIONS 3 (human plasma [3]; [10]): 44.9

Sodium Sulfite
PT (human plasma [2]): 16.38 s
PT(seconds) Exp. 1 A (human plasma [2]): 16.8 s and 16.2 s
PT(seconds) Exp. 2 A (human plasma [2]): 17.7 s
PT (human plasma [2]; [4]): 16.14 s
PTT(seconds) Exp. 1 A (human plasma [3]): 74.8 s and 66.1 s
PTT (human plasma [3]; [5]): 66.53 s
PTT(seconds) Exp. 2 A (human plasma [3]): 82.1 s and 80.7 s
PTT (human plasma [3]; [6]): 64.62 s
